The text below walks through data of patent US9701659B2, “Insecticidally active amide derivatives with sulfur-substituted phenyl or pyridine groups” (Syngenta Participations AG, priority 2014, dated 2017).

The test system of series [1] is Spodoptera littoralis (Egyptian cotton leaf worm). As to the kind of experiment: Example B1: activity against Spodoptera littoralis, larvicide, feeding/residual contact, preventive (cotton leaf discs). In kind it is in vivo. As to conditions: foliar, 72 h, L1 larvae, 3 days after treatment, read-out: activity (mortality, repellent effect, feeding behaviour, growth regulation). The text has this: Activity Against Spodoptera littoralis (Egyptian Cotton Leaf Worm)
(§1) (Larvicide, Feeding/Residual Contact Activity, Preventive)
Cotton leaf discs were placed on agar in a 24-well microtiter plate and sprayed with test solutions. After drying, the leaf discs were infested with 5 L1 larvae. The samples were checked for mortality, repellent effect, feeding behaviour, and growth regulation 3 days after treatment (DAT).

Series [2] has as its system Diabrotica balteata (corn root worm). As to the kind of experiment: Example B4: activity against Diabrotica balteata, larvae L2 on maize sprouts, feeding/contact, preventative. In kind it is in vivo. As to conditions: 120 h, 5 days incubation, read-out: activity (larval mortality, growth regulation). As to the method: Activity Against Diabrotica Balteata (Corn Root Worm)
(Larvae L2 on Maize Sprouts, Feeding/Contact, Preventative)
Maize sprouts, placed on an agar layer in 24 well micro titer plates were treated with test solutions by spraying. After drying, the MTPs were infested with L2 larvae (6-10 per well). After an incubation period of 5 days, samples were checked for larval mortality and growth regulation.

Series [3] has as its system Aedes aegypti (yellow fever mosquito). In words: Example B9: activity against Aedes aegypti, adult females on treated plates. In kind it is in vivo. As to conditions: 200 ppm in ethanol; after 48 hours. The method, then: Activity Against Aedes aegypti (Yellow Fever Mosquito)
Test solutions, at an application rate of 200 ppm in ethanol, were applied to 12-well tissue culture plates. Once the deposits were dry, five, two to five days old adult female Aedes aegypti were added to each well, and sustained with a 10% sucrose solution in a cotton wool plug. Assessment of knockdown was made one hour after introduction, and mortality was assessed at 24 and 48 hours after introduction.

Series [4] relates to Myzus persicae (green peach aphid). In words: Example B6: activity against Myzus persicae, feeding activity sachet test, mixed population. In kind it is in vivo. As to conditions: 120 h, 5 days after infestation. An excerpt:
(§2) Activity Against Myzus persicae (Green Peach Aphid)
(Feeding Activity Sachet Test), Mixed Population
Test compounds were applied by pipette into 24 well plates and mixed with Sucrose solution. The plates were closed with a stretched Parafilm. A plastic stencil with 24 holes is placed onto the plate and infested pea seedlings were placed directly on the Parafilm. The infested plate is closed with a gel blotting paper and another plastic stencil and then turned upside down. 5 days after infestation the samples were checked on mortality. Application rate: 12.5 ppm.

Series [5] shares this test system. In words: Example B5: activity against Myzus persicae, feeding/residual contact, preventive, mixed population (sunflower leaf discs). In kind it is in vivo. The conditions noted are these: foliar, 144 h, mixed ages, 6 DAT, read-out: activity (mortality, special effects). As to the method: as §2
(Feeding/Residual Contact Activity, Preventive), Mixed Population
Sunflower leaf discs were placed on agar in a 24-well microtiter plate and sprayed with test solutions. After drying, the leaf discs were infested with an aphid population of mixed ages. After an incubation period of 6 DAT, samples were checked for mortality and special effects (e.g. phytotoxicity).

The test system of series [6] is Plutella xylostella (diamond back moth). In words: Example B3: activity against Plutella xylostella, larvicide, feeding/residual contact, preventive (artificial diet). In kind it is in vivo. As to conditions: 120 h, L2 larvae, 5 days incubation, read-out: activity (larval mortality, antifeedant, growth regulation). The method, then:
Activity Against Plutella xylostella (Diamond Back Moth)
as §1
24-well microtiter plate (MTP) with artificial diet was treated with test solutions by pipetting. After drying, the MTPs were infested with L2 larvae (10-15 per well). After an incubation period of 5 days, samples were checked for larval mortality, antifeedant and growth regulation.

Series [7] concerns Myzus persicae (green peach aphid). As to the kind of experiment: Example B7: activity against Myzus persicae, systemic/feeding activity, curative, mixed population (pea seedlings). In kind it is in vivo. The conditions noted are these: 144 h, roots in test solution, 6 days after introduction, read-out: activity (mortality, special effects on the plant).
Description: as §2
(Systemic/Feeding Activity, Curative), Mixed Population
Roots of pea seedlings, infested with an aphid population of mixed ages, were placed directly in the test solutions. 6 days after introduction, samples were checked for mortality and special effects on the plant.

With `CCS(=O)(=O)c1cc(C(F)(F)F)ccc1C(=O)/N=c1\sc(C(F)(F)F)nn1C`, the melting point was 195 to 197 °C.
As for `CCS(=O)(=O)c1cc(C(F)(F)F)cnc1C(=O)/N=c1\sc(C(F)(F)C(F)(F)F)nn1C`, the melting point lay in the range of 123 to 125 °C.
As to `CCS(=O)(=O)c1cc(C(F)(F)F)cnc1C(=O)/N=c1\cc(C(F)(F)F)ccn1C`, the melting point was in the range of 153 to 155 °C.
For `CCS(=O)(=O)c1cc(C(F)(F)F)cnc1C(=O)/N=c1\ccc(SC(F)(F)F)cn1C`, the melting point lay in the range of 167 to 169 °C.
As to `CCS(=O)(=O)c1cc(C(F)(F)F)cnc1C(=O)/N=c1\scc(C(F)(F)F)n1C`, the melting point fell in the range of 163 to 165 °C.
In the case of `CCS(=O)(=O)c1cc(C(F)(F)F)cnc1C(=O)/N=c1\sc(C(F)(F)F)cn1C` [P1, (N)-3-ethylsulfonyl-N-[3-methyl-5-(trifluoromethyl)thiazol-2-ylidene]-5-(trifluoromethyl)pyridine-2-carboxamide], the mortality at 400 ppm in series [1] and in series [2] was over 80% each time.
As to `CCSc1cccnc1C(=O)/N=c1\sc(C(F)(F)F)nn1C` [P3, (N)-3-ethylsulfanyl-N-[3-methyl-5-(trifluoromethyl)-1,3,4-thiadiazol-2-ylidene]pyridine-2-carboxamide], the mortality at 400 ppm in series [2] and in series [5] was over 80% in each case. For the same molecule, the “control of Aedes aegypti” value in series [3] is on record as “at least 80%”. In series [4], this molecule displayed a mortality at 12.5 ppm of at least 80%.
With `CCSc1cc(C(F)(F)F)cnc1C(=O)/N=c1\sc(C(F)(F)F)nn1C` [P4], the mortality at 400 ppm in series [6], in series [1] and in series [2] was over 80% throughout.
For the molecule `CCS(=O)(=O)c1cccnc1C(=O)/N=c1\sc(C(F)(F)F)nn1C` [P5, (N)-3-ethylsulfonyl-N-[3-methyl-5-(trifluoromethyl)-1,3,4-thiadiazol-2-ylidene]pyridine-2-carboxamide], in series [7], the mortality at 24 ppm was at least 80%. In addition, in series [5], the mortality at 400 ppm is over 80%.
As for `CCS(=O)(=O)c1cc(C(F)(F)F)cnc1C(=O)/N=c1\sc(C(F)(F)F)nn1C` [P6], the mortality at 400 ppm in series [6], in series [1] and in series [2] was over 80% each time.
As for `CCS(=O)(=O)c1cc(C(F)(F)F)cnc1C(=O)/N=c1\ccc(C(F)(F)F)nn1C` [P9], the mortality at 400 ppm in series [5] is over 80%.

By melting point is commonly meant the temperature, or range, at which the solid turns liquid. A word on the mortality: it is the percentage killed.
